Experiment [1] has as its system MiaPaca-2 cells (pancreatic cancer). Briefly: Proliferation test method 1 (2D, MTT), MiaPaca-2. It counts as cell-based. The note with it: Homo sapiens, MIA PaCa-2, 2D, 5-7 days, read-out: IC50/nM proliferation inhibitory activity on MiaPaca-2 cells. On the procedure:
Test method 1 (2D):NCI-H358 (lung cancer) and MiaPaca-2 cells (pancreatic cancer) cells (100 µL/well, 20,000 cells/mL) were inoculated in 96-well culture plates supplemented with 10% fetal bovine serum and 1% penicillin/streptomycin sulfate, respectively.Using 0.5% dimethyl sulfoxide as a blank control, cells were treated with a solution of the compound to be tested at a starting concentration of 10 µM, tripled diluted testing solution of the compound in eight gradients were used to treat cells, and then incubated in a 5% CO2 incubator for a certain period of time (5-7 days).At the end of incubation, 10 µL of MTT stock solution (5 mg/mL) was added to each well.The culture plates were incubated at 37° C. for 4 h and then the medium was removed.Dimethyl sulfoxide (100 µL) was added to each well and then shaken sufficiently. The absorbance of the product formazanwas measured at 570 nm on the Thermo Scientific Varioskan Flash multimode reader.IC50 values were obtained by fitting dose-response data into a three-parameter nonlinear regression model using GraphPad Prism 6.0 software.

Experiment [2] deals with transplanted tumor of MiaPaca-2, NCI-H358 tumor cells. Briefly: Growth inhibition of transplanted tumor in nude mice. It counts as in vivo. The note with it: 10 mg/kg orally, after two weeks of administration. As to the method:
The tumor tissues in the peak growth period were cut into 1.5 mm^3 and inoculated into the right axillary subcutis of nude mice under aseptic conditions. The subcutaneous transplanted tumors of nude mice were measured by vernier calipers for the diameter of the transplanted tumors, and the animals were randomly grouped when the average volume of the tumors reached about 130 mm^3.The example compound (injection water containing 1% Tween 80 was prepared to the desired concentration and then left to be used) was administered orally at the given dose daily for three weeks, and the solvent control group was given an equal amount of solvent. The transplanted tumor diameter was measured twice a week throughout the experiment, and the mice were weighed at the same time.The tumor volume (TV) was calculated by the formula: TV = ½×a×b^2, where a and b are the length and width, respectively.

As for `C=CC(=O)N1C[C@@H]2C(=O)N(C)c3cnc4c(F)c(-c5ccc(F)c6sc(N)nc56)c(Cl)cc4c3N2C[C@H]1C` (single isomer, unassigned) [Example 17-1], the IC50 in experiment [1] is 24.8 nM. In the case of `C=CC(=O)N1CCN(c2c(C#N)cnc3c(F)c(-c4ccc(F)c5sc(N)nc45)c(Cl)cc23)CC1` [Example 8], the tumor regression result in experiment [2] is on record as “tumor regression was achieved”.

(Values after US20230174526A1, “BENZOTHIAZOLYL BIARYL COMPOUND, AND PREPARATION METHOD AND USE” (SHANGHAI RINGENE BIOPHARMA CO., LTD., priority 2020, published 2023).)
